Our source for the inhibition and IC50 values is patent publication EP3311800B1, “COMPOSITION COMPRISING MICROSTRUCTURES FOR THE CONTROLLED RELEASE OF OZONIZED OIL” (Project & Communications, Ltd., priority 2016, dated 2018).

This experiment concerns fibroblast L929. Nature of the experiment: cytotoxicity test (MTT test), UNI EN ISO 10993-5:2009. The format is cell-based. The note with it: Mus musculus. From the text:
The four compositions indicated above were subjected to a cytotoxicity test (MTT test).
As is known, the cytotoxicity test (MTT test) is a reduction test used for determining the level of metabolic activity in the eukaryote cells. This is one of the most widely used cytotoxicity tests, thanks to its simplicity, accuracy and reproducibility. The chemical base of the test is the reduction of MTT, a tetrazole compound [3-(4,5-dimethylthiazol-2-yl)-2,5-diphenyltetrazolium bromide]. MTT is a yellow substance which, after reduction, forms a purple-colored formazan salt.
The process mainly takes place in the cytoplasm and secondarily in the mitochondria and at the level of the plasmatic membrane. The activity of the reductase that catalyze the reaction is highly dependent on the concentration of the intracellular NADH and NADPH, whose levels are associated with the availability of extracellular glucose. The mitochondrial succinate dehydrogenase and the cytochrome C also take part in the reduction of MTT. Consequently, any substance or treatment that interferes with these enzymes or with the glycolysis would influence the reduction of MTT and would therefore alter the results of the cell count. As a result of these metabolic reduction processes, dark purple crystals of formazan are formed within a few hours. These crystals can be solubilized in various organic solvents, mainly alcohols. An increase or a reduction in the number of cells causes an analogous variation in the quantity of formazan formed, thus giving an indication of the degree of cytotoxicity of the product tested.
The MTT test was carried out on cultures of fibroblast L929 treated with the extract (transfer liquid as such obtained after overnight incubation of the composition under examination in the culture medium) and subsequent dilutions 1:2. The same procedure was also applied for the negative reference (internal standard), whereas the positive control (SDS) was tested at concentrations ranging from 0.00313 to 0.4 mg/ml. Sodium dodecyl sulfate (SDS), a substance with known cytotoxic effects was used as positive control, whereas a non-cytotoxic internal standard was used as negative reference. The analysis was carried out according to the ISO standard for the biological evaluation of medical devices UNI EN ISO 10993-5:2009 (E) .
More specifically, an adequate number of cells was seeded in 96-well plates. Once a semi-confluent monolayer had been reached, the cells were treated with the various concentrations of the sample tested and standards and incubated for 24 hours under standard conditions. Non-treated cells kept in the culture medium represent the negative controls. After 24 hours of contact, the plates were examined under a phase contrast microscope, the medium was carefully removed from each well, the cells were then treated with MTT (1 mg/ml) and incubated for 3 hours under standard conditions. At the end of this period, the solution of MTT was eliminated and 100 µl of isopropanol were added to each well to dissolve the formazan crystals formed. The absorbance (optical density, OD) was determined by reading the spectrophotometer at a wavelength of 540 nm.
The inhibition of the cell vitality at each tested concentration was expressed as a percentage with respect to the negative control (non-treated cells) according to the following formula: Inhibition % = 100−[ODX /ODNC )×100] […]
The values thus calculated were charted against the same concentrations. […]

Molecules are shown by their SMILES.

As to `CCCCCCCCCCCCOS(=O)(=O)[O-].[Na+]` [SDS, Sodium dodecyl sulfate], the inhibition at 50 µg/mL (Concentration 0.05 mg/ml, 24 hours, read-out: Cell vitality inhibition (%)) amounted to 66.5%. Besides, the inhibition at 100 µg/mL (Concentration 0.1 mg/ml, 24 hours, read-out: Cell vitality inhibition (%)) turned out to be 97.2%. The inhibition at 200 µg/mL (Concentration 0.2 mg/ml, 24 hours, read-out: Cell vitality inhibition (%)) turned out to be 97.5%. Moreover, the inhibition at 400 µg/mL (Concentration 0.4 mg/ml, 24 hours, read-out: Cell vitality inhibition (%)) worked out at 96.8%. Also, the IC50 (concentration inhibiting cell vitality by 50%, extrapolated from concentration/response curve) is 46 µg/mL.
